Article PMC8474116, “Discovery of Novel Acetamide-Based Heme Oxygenase-1 Inhibitors with Potent In Vitro Antiproliferative Activity” (Journal of Medicinal Chemistry, 2021)

Columns and labels:
HO-1 [1] = target: T1, HO-1 (Rattus norvegicus, UniProt P06762); assay: HO-1 enzymatic activity, rat spleen microsomal fraction (bilirubin formation); format: biochemical
T1 construct: selected to use the most native (i.e., closest to in vivo) forms of HO-1 and HO-2; from tissue; host or cells: rat spleen (male Sprague-Dawley), microsomal fraction
T1 sequence (P06762 1-289): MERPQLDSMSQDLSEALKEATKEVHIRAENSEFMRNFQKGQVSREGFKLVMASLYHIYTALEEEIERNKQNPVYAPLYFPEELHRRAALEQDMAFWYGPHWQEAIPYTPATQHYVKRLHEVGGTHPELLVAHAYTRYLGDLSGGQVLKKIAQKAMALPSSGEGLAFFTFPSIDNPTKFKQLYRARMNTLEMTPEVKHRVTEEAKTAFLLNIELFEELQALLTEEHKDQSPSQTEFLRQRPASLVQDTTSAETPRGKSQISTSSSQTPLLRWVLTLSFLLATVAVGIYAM
Method: (§1) HO-1 and HO-2 were obtained, respectively, from the rat spleen and brain as the microsomal fraction prepared by differential centrifugation; the dominance of HO-1 protein in the rat spleen and HO-2 in the rat brain has been well documented.[24] These particular microsomal preparations were selected to use the most native (i.e., closest to in vivo) forms of HO-1 and HO-2. Spleen and brain (Sprague-Dawley rats) microsomal fractions were prepared according to the procedure outlined by Ryter et al.[2] The experiments reported in the present paper complied with the current Italian law and met the guidelines of the Institutional Animal Care and Use Committee of the Ministry of Health (Directorate General for Animal Health and Veterinary Medicines, Italy) “Dosing of enzymatic activities in rat microsomes” (2018–2022), project code 02769.N.VLY. The experiments were performed in male Sprague-Dawley albino rats (150 g body weight and age 45 d). They had free access to water and were kept at room temperature with a natural photoperiod (12 h light–12 h dark cycle). For measuring HO-1 and HO-2 activities, each rat was sacrificed and their spleen and brain were excised and weighed. A homogenate (15%, w/v) of spleens and brains pooled from four rats was prepared in ice-cold HO-homogenizing buffer (50 mM Tris buffer, pH 7.4, containing 0.25 M sucrose) using a Potter–Elvehjem homogenizing system with a Teflon pestle. The microsomal fraction of rat spleen and brain homogenate was obtained by centrifugation at 10 000g for 20 min at 4 °C, followed by centrifugation of the supernatant at 100 000g for 60 min at 4 °C. The 100 000g pellet (microsomes) was resuspended in 100 mM of potassium phosphate buffer, pH 7.8, containing 2 mM MgCl2 with a Potter–Elvehjem homogenizing system. The rat spleen and brain microsomal fractions were divided into equal aliquots, placed into microcentrifuge tubes, and stored at −80 °C for up to 2 months.
(§2) Liver cytosol has been used as a source of biliverdin reductase. Rat liver was perfused through the hepatic portal vein with cold 0.9% NaCl; then, it was cut and flushed with 2 × 20 mL of ice-cold PBS to remove all of the blood. Liver tissue was homogenized in 3 volumes of a solution containing 1.15% KCl w/v and Tris buffer 20 mM, pH 7.8 on ice. Homogenates were centrifuged at 10 000g for 20 min at 4 °C. The supernatant was decanted and centrifuged at 100 000g for 1 h at 4 °C to sediment the microsomes. The 100 000g supernatant was saved and then stored in small amounts at −80 °C after its protein concentration was measured.
(§3) The HO-1 and HO-2 activities were determined by measuring the bilirubin formation using the difference in absorbance at 464–530 nm, as described by Ryter et al.[2] Reaction mixtures (500 μL) consisted of 20 mM of Tris–HCl, pH 7.4, (1 mg/mL) microsomal extract, 0.5–2 mg/mL of biliverdin reductase, 1 mM of NADPH, 2 mM of glucose 6-phosphate (G6P), 1 U of G6P dehydrogenase, 25 μM of hemin, and 10 μL of DMSO (or the same volume of DMSO solution of test compounds to a final concentration of 100, 10, and 1 μM). Incubations were carried out for 60 min at 37 °C in a circulating water bath in the dark. Reactions were stopped by adding the same volume of chloroform. After recovering the chloroform phase, the amount of bilirubin formed was measured with a double-beam spectrophotometer as OD464–530 nm (extinction coefficient, 40 mM/cm^–1 for bilirubin). One unit of the enzyme was defined as the amount of enzyme catalyzing the formation of 1 nmol of bilirubin/mg protein/h.

HO-2 = target: T2, HO-2 (Rattus norvegicus, UniProt P23711); assay: HO-2 enzymatic activity, rat brain microsomal fraction (bilirubin formation); format: biochemical; settings: mean of triplicate ± SD
T2 construct: selected to use the most native (i.e., closest to in vivo) forms of HO-1 and HO-2; from tissue; host or cells: rat brain (male Sprague-Dawley), microsomal fraction
T2 sequence (P23711 1-315): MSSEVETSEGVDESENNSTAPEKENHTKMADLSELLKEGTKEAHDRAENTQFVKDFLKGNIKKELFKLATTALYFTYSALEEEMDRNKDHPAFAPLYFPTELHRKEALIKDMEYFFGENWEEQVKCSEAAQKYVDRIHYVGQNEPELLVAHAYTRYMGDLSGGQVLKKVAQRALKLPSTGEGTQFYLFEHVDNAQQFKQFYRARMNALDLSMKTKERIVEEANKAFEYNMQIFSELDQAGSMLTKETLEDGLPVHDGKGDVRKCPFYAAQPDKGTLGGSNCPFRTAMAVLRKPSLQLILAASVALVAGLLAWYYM
Method: as §1, §2, §3

A172 cells = assay: MTT cell viability assay, A172; format: cell-based, human; settings: 48 h, all tested concentrations (1, 10, 50 μM)
Method: Experiments were performed on human GBM cell lines U87MG (ATCCC number #HTB-14) and A172 (ATCCC #CRL-1620) on DU145 (ATCC HTB-81) and human lung adenocarcinoma A549 (ATCC CCL-185-LUC2). All cell lines were obtained from the American Type Culture Collection (ATCC, Rockville, MD). Cells were grown in Dulbecco’s modified Eagle’s medium (DMEM) supplemented with 10% of heat-inactivated fetal bovine serum (FBS), 100 U/mL of penicillin, and 100 μg/mL of streptomycin (Sigma-Aldrich, Steinheim, Germany). Cells were incubated at 37 °C in a humidified atmosphere with 5% CO2.
The effect of selected compounds 7i and 7l–p on cell viability was assessed by performing an MTT assay. Cells were seeded into 96-well plates at a density of 7 × 10^3 cells/well in 100 μL of culture medium. After 24 h, cells were treated with selected compounds at three different concentrations (1 μM, 10 μM, and 50 μM) for 48 h. Following treatments, 0.5 mg/mL of 3-[4,5-dimethylthiazol-2-yl]-2,5-diphenyltetrazolium bromide (MTT) (Sigma-Aldrich) was added to each well and incubated for 4 h at 37 °C. Finally, dimethyl-sulfoxide (DMSO) was used to dissolve formazan salts, and absorbance was measured at 570 nm in a microplate reader (Biotek Synergy-HT). Eight replicate wells were used for each group.

HO-1 [2] = assay: HO-1 protein expression by Western blot, A172; format: cell-based, human; settings: A172, 10 μM, 48 h
Method: (§4) Proteins were extracted from total cell lysate, as previously described.[61] Briefly, cell lines were added to a buffer containing 20 mM Tris (pH 7.4), 2 mM EDTA, 0.5 mM EGTA, 50 mM mercaptoethanol, and […] sucrose supplemented with phosphatase and protease inhibitor cocktails (Roche Diagnostics, Monza, Italy). Subsequently, protein samples were sonicated twice for 20′ by using an ultrasonic probe, followed by centrifugation at 10 000g for 10 min at 4 °C. Sample proteins (30 μg) were diluted in 4X NuPage LDS sample buffer (Invitrogen, NP0007), heated at 80 °C for 5 min, and then separated on a Biorad Criterion XT 4–15% Bis–Tris gel (BIO-RAD) by electrophoresis and then transferred to a PVDF membrane (BIO-RAD). Blots were blocked using the Odyssey Blocking Buffer (LI-COR Biosciences) and probed with appropriate antibodies: HO-1 antibody (GeneTex GTX101147), goat polyclonal anti-VEGF (cat. no. sc-1836, Santa Cruz Biotechnology), and rabbit polyclonal anti-β-tubulin (cat n.sc-9104, Santa Cruz Biotechnology) and β-actin antibody (GeneTex GTX109639).
(§5) The secondary antibodies goat antirabbit (Odyssey, #926-32211; Odyssey #926-68021) and donkey antigoat IRDye 800CW (cat #926-32214; Li-Cor Biosciences) were used at 1:7000. Blots were scanned, and densitometric analysis was performed with the Odyssey Infrared Imaging System. Values were normalized to β-actin and to β-tubulin.

HO-1 [3] = assay: HO-1 protein expression by Western blot, DU145; format: cell-based; settings: DU145, 10 μM, 48 h
Method: as §4, §5

HO-1 [4] = assay: HO-1 inhibition of known inhibitors (values printed in Figure 1); format: biochemical; settings: 0.27 vs 4.0 μM

Row | Compound | HO-1 vs HO-2 selectivity (in words) (HO-1 [1]) | fold more potent than parent compound 4 (HO-1) (HO-1 [1]) | IC50 (HO-1 [1]; rat spleen microsomal fraction, mean of triplicate ± SD) [nM] | SI (HO-2/HO-1) (HO-1 [1]; ratio of HO-2 and HO-1 IC50) | IC50 (HO-2) [nM] | cell viability reduction (in words) (A172 cells) | HO-1 protein expression (in words) (HO-1 [2]) | HO-1 protein expression (in words) (HO-1 [3]) | melting point [°C] | fold higher inhibitory potency toward HO-1 with respect to monophenyl analogue 2 (HO-1 [4]) [fold]
1 | CN(C(=O)Cn1ccnc1)C(c1ccccc1)c1ccccc1 [7i, N-Benzhydryl-2-(1H-imidazol-1-yl)-N-methylacetamide] | superimposable HO-1 and HO-2 IC50 values | about 32 fold | 900 ± 70 | 1 | 900 ± 50 | remarkable reduction of cell viability | enhanced its levels | reduced HO-1 protein expression | 121 to 126 | 
2 | O=C(CC(c1ccccc1)c1ccccc1)Cn1ccnc1 [compound 3] |  |  |  |  |  |  |  |  |  | 15
